Assay results: patent US20260015315A1, “AMINO LIPID COMPOUND, PREPARATION METHOD THEREFOR, COMPOSITION THEREOF AND APPLICATION THEREOF” (SHENZHEN SHENXIN BIOTECHNOLOGY CO., LTD., priority 2022, published 2026)

What was measured:
[1] = system: BALB/c mice; assay: In vivo delivery of lipid nanoparticle encapsulating luciferase mRNA (Fluc mRNA), IVIS imaging; details: for Total flux (fluorescence expression intensity): Fluc mRNA-LNP (amino lipid:DSPC:CHO-HP:PEG2000-DMG 48:10:40.5:1.5), whole body; for Total flux (fluorescence expression intensity) / Spleen (fluorescence expression intensity) / Liver (fluorescence expression intensity): 75 μL tail vein IV, female BALB/c mice, IVIS 6 hours after injection; for Spleen (fluorescence expression intensity) / (Spleen/Total Flux) * 100% / Multiple of spleen delivery/total delivery (Spleen/Total Flux) to Compound 118 / Liver (fluorescence expression intensity): Fluc mRNA-LNP; for (Spleen/Total Flux) * 100% / Multiple of spleen delivery/total delivery (Spleen/Total Flux) to Compound 118: tail vein IV, BALB/c mice, 6 hours; for Multiple of spleen delivery/total delivery (Spleen/Total Flux) to Compound 118: relative to Compound 118
Experimental: The amino lipid compound of the present disclosure, a helper lipid, a structural lipid, and a PEG-lipid were separately dissolved in absolute ethanol to prepare respective solutions at concentrations of 20 mg/mL, 10 mg/mL, 20 mg/mL, and 25 mg/mL, respectively. The above four solutions were pipetted at a molar ratio of the amino lipid compound: DSPC:CHO-HP:PEG2000-DMG of 48:10:40.5:1.5, and mixed well to prepare an alcohol phase.
(2) Encapsulation: The water phase and the alcohol phase were injected into a microfluidic chip at a flow rate of water phase:alcohol phase=12 mL/min: 4 mL/min by using a microfluidic preparation instrument (MPE-L2), and encapsulation was carried out at a flow rate of water phase:alcohol phase=9 mL/min: 3 mL/min to obtain mRNA-encapsulating lipid nanoparticle (mRNA-LNP).
(3) Dialysis: The product of step (2) was loaded in a dialysis bag and placed in a Tris Buffer-8% sucrose solution for replacement to remove ingredients such as residual ethanol, unassembled lipids. Dialysis was conducted for 2 h with magnetic stirring at room temperature and under protection from light (dialysate was replaced every 1 hour).
(4) The product of step (3) was sterilized by passing through a 0.22 μm microporous membrane, and then packaged.
Lipid nanoparticle formulations encapsulating Flue mRNA were prepared, with a concentration of Flue mRNA of 0.2 μg/μL, a mass ratio of Flue mRNA to Lipid of 1:10, a particle size of 80-130 nm, and a encapsulation efficiency of 80% or higher.
• Animal preparation: Female BALB/c mice of 6-8 weeks old were selected and raised in an SPF grade breeding room. Animal testing was conducted in strict accordance with the guidelines of national health institutions and animal ethics requirements.
In vivo Delivery: prior to injection of the test LNP formulations, the LNP formulations were gently and repeatedly inverted to thoroughly mix the formulation samples. A corresponding amount of the formulation samples were aspirated with a 1 ml insulin syringe, and the LNP formulations were injected by tail vein injection (IV), with 3 mice in duplicate per formulation. Each mouse was injected with 75 μL of the luciferase mRNA (Flue mRNA)-encapsulating lipid nanoparticle formulation prepared in Experimental Example 1.
6 hours after injection of LNP formulations, mice were injected with 200 μL D-Luciferin luciferase developing substrate (Catalog No. 122799; Manufacturer: Perkin Elmer). After the substrate was injected, the mice were anesthetized by injection of 200 μl of 2.5% avertin, and the injection time of luciferase developing substrate was recorded.
The fluorescence expression intensity induced by the lipid nanoparticle encapsulating luciferase mRNA (Flue mRNA) with a representative amino lipid compound is shown in Table 4, with the amino lipid compound 118 as a control.

[2] = system: immune cell populations in different tissues and organs; assay: Delivery efficiency of eGFP mRNA encapsulating LNP to immune cell populations in different tissues and organs (flow cytometry); format: in vivo; details: eGFP mRNA-LNP intravenous, C57BL/6 mice, 6 hours; spleen, axillary lymph nodes, peripheral blood, bone marrow, lungs, liver; FIGS. 1A to 1F
Experimental: C57BL/6 mice (3 mice per group) were intravenously injected with eGFP mRNA encapsulating LNP. After 6 hours, the mice were dissected, and the spleen, axillary lymph nodes, peripheral blood, bone marrow, lungs and liver were collected to prepare single-cell suspensions of various tissues and organs. After blocking with Fe blocking antibodies and surface staining with fluorescent-labeled antibodies, sample analysis was conducted by flow cytometry to analyze the expression levels of eGFP in various immune cell populations to confirm the delivery efficiency of lipid nanoparticles comprising different amino lipid compounds to immune cell populations in different tissues and organs.

| Structure (SMILES) | Total flux (fluorescence expression intensity) [1] | Spleen (fluorescence expression intensity) [1] | (Spleen/Total Flux) * 100% [1] | Multiple of spleen delivery/total delivery (Spleen/Total Flux) to Compound 118 [1] | Liver (fluorescence expression intensity) [1] | Delivery preference to immune cells (eGFP expression in immune cell populations) [2] |
| --- | --- | --- | --- | --- | --- | --- |
| CCCCCCCOCC(=O)N(CCN(C)C)C(CCCCCCCCC(=O)OC(CCCCCC)CCCCCC)CCCCCCCCC(=O)OC(CCCCCC)CCCCCC [compound 147] | 4.97E+06 | 1.13E+05 | 2.27% | 1.99 |  |  |
| CCCCCCC(CCCCCC)OC(=O)CCCCCCCCC(CCCCCCCCC(=O)OC(CCCCCC)CCCCCC)N(CCN(C)C)C(=O)CCOCCCCC [compound 150] | 2.06E+07 | 2.27E+05 | 1.10% | 0.97 | 5.51E+06 |  |
| CCCCCCC(CCCCCC)OC(=O)CCCCCCCCC(CCCCCCCCC(=O)OC(CCCCCC)CCCCCC)N(CCCN(C)C)C(=O)CCOCCCCC [compound 125] | 5.40E+07 | 2.72E+06 | 5.04% | 4.42 |  |  |
| CCCCCCOCCC(=O)N(CCCN(C)C)C(CCCCCCCCC(=O)OC(CCCCCC)CCCCCC)CCCCCCCCC(=O)OC(CCCCCC)CCCCCC [compound 126] | 5.39E+07 | 6.87E+06 | 12.75% | 11.18 |  |  |
| CCCCCCOCCC(=O)N(CCCCN(C)C)C(CCCCCCCCC(=O)OC(CCCCCC)CCCCCC)CCCCCCCCC(=O)OC(CCCCCC)CCCCCC [compound 173] | 2.07E+07 | 8.03E+06 | 38.79% | 34.03 | 9.15E+06 |  |
| CCCCCCC(CCCCCC)OC(=O)CCCCCCCCC(CCCCCCCCC(=O)OC(CCCCCC)CCCCCC)N(CCCN(C)C)C(=O)CCCOCCCC [compound 129] | 3.53E+07 | 1.33E+07 | 37.68% | 33.05 |  |  |
| CCCCCCCOCCC(=O)N(CCCCN(C)C)C(CCCCCCCCC(=O)OC(CCCCCC)CCCCCC)CCCCCCCCC(=O)OC(CCCCCC)CCCCCC [compound 174] | 9.59E+07 | 7.28E+06 | 7.59% | 6.66 | 1.62E+07 |  |
| CCCCCCC(CCCCCC)OC(=O)CCCCCCCCC(CCCCCCCCC(=O)OC(CCCCCC)CCCCCC)N(CCN(C)C)C(=O)CCOCCCC [compound 149] | 5.80E+06 | 1.29E+05 | 2.22% | 1.95 |  |  |
| CCCCCCCCOCC(=O)N(CCCN(C)C)C(CCCCCCCCC(=O)OC(CCCCCC)CCCCCC)CCCCCCCCC(=O)OC(CCCCCC)CCCCCC [compound 123] | 5.95E+07 | 4.02E+06 | 6.76% | 5.93 |  |  |
| CCCCCCC(CCCCCC)OC(=O)CCCCCCCCC(CCCCCCCCC(=O)OC(CCCCCC)CCCCCC)N(CCCN(C)C)C(=O)COCCCC [compound 119] | 2.65E+07 | 6.80E+06 | 25.66% | 22.51 |  |  |
| CCCCCCOCCCC(=O)N(CCCN(C)C)C(CCCCCCCCC(=O)OC(CCCCCC)CCCCCC)CCCCCCCCC(=O)OC(CCCCCC)CCCCCC [compound 131] | 3.26E+07 | 6.59E+06 | 20.21% | 17.73 |  | clear delivery preference to immune cells in various tissues and organs |
| CCCCCCOCC(=O)N(CCN(C)C)C(CCCCCCCCC(=O)OC(CCCCCC)CCCCCC)CCCCCCCCC(=O)OC(CCCCCC)CCCCCC [compound 146] | 1.37E+07 | 6.65E+04 | 0.49% | 0.43 |  |  |
| CCCCCCCCOCCCC(=O)N(CCCN(C)C)C(CCCCCCCCC(=O)OC(CCCCCC)CCCCCC)CCCCCCCCC(=O)OC(CCCCCC)CCCCCC [compound 133] | 3.58E+07 | 1.25E+07 | 34.92% | 30.63 |  | clear delivery preference to immune cells in various tissues and organs |
| CCCCCCC(CCCCCC)OC(=O)CCCCCCCCC(CCCCCCCCC(=O)OC(CCCCCC)CCCCCC)N(CCN(C)C)C(=O)COCCCCC [compound 145] | 1.21E+07 | 1.04E+05 | 0.86% | 0.75 |  |  |
| CCCCCCC(CCCCCC)OC(=O)CCCCCCCCC(CCCCCCCCC(=O)OC(CCCCCC)CCCCCC)N(CCCN(C)C)C(=O)CCCOCCCCC [compound 130] | 5.73E+07 | 1.13E+07 | 19.72% | 17.30 |  | clear delivery preference to immune cells in various tissues and organs |
